41 compounds from patent US9981909B2 (Janssen Pharmaceutica NV, priority 2008, dated 2018) can be followed below.

Broadly, the Ki is the equilibrium dissociation constant of an inhibitor or competing ligand from its target.

Where a name gives a salt, the structure may show the parent alone. A value given as a limit tells only on which side of the number the result lay.

The target in the assay is rat 5-HT7 receptor (Rattus norvegicus (Rat), UniProt P32305). As to the kind of experiment: r5-HT7 binding assay, competitive radioligand binding with [3H]5-CT. As for the experimental part:
Receptor binding was performed using membrane fractions prepared from the HEK-293 cell line recombinantly expressing rat 5-HT7 receptors (NCBI accession NM_022938). Compound affinity for the rat 5-HT7 receptor subtype was evaluated by competitive radioligand binding assays using 5-carboxamido[^3H]tryptamine ([^3H]5-CT) (Amersham Biosciences, cat. 90000403) detection. HitHunter™ cAMP assays are in-vitro based competitive immunoassays. The assay was performed on the HEK-293 cell line stably transfected with r5-HT7 receptor. Cells were pre-incubated with test compounds for 10 minutes. For antagonist testing, the cells were then challenged with 100 nM 5-CT for 20 minutes. Cells were then lysed and cAMP measured according to manufacturers protocol (Amersham, cat. NET791250UC) or [^3H]mesulergine (Amersham, cat. TRK1041). The assay was performed on membranes prepared from HEK-293 cells stably transfected with h5-HT6. Following centrifugation, membranes were resuspended and incubated for 60 min at room temperature with 1.7 nM [^3H]LSD in the presence of increasing concentration of test compounds. Nonspecific binding was defined in the presence of 10 μM clozapine (Tocris, cat. TRK1068). Homogenized HEK-293 membranes expressing the human SERT were incubated in 50 mM Tris-HCl (pH 7.5), 120 mM NaCl, 5 mM KCl with [^3H]-citalopram (3 nM) with or without test compounds. Nonspecific binding was determined in the presence of 10 μM fluoxetine. Radioactivity readouts and Ki values were performed as previously described for r5-HT7. […] Compounds were assayed in their free form or as salts, as indicated in the Examples section above.

The mark [1] stands for this setting: rat 5-HT7 receptor, HEK-293 membranes.

rat 5-HT7 receptor, sequence (P32305 1-435): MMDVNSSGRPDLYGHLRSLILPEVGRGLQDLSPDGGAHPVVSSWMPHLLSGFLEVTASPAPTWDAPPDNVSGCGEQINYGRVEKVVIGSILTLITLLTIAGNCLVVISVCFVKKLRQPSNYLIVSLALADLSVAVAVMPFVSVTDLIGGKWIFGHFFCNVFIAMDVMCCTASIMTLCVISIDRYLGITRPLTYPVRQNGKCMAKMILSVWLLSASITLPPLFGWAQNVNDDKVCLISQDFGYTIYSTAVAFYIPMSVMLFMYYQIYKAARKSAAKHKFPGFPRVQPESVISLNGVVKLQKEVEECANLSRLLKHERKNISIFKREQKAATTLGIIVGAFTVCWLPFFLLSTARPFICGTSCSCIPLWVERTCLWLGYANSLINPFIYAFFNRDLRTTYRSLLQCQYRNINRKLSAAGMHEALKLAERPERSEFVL

In the case of `Clc1ccc(OCc2ccccc2Cl)c(O[C@@H]2CCNC2)c1` [Example 60, (R)-3-[5-Chloro-2-(2-chloro-benzyloxy)-phenoxy]-pyrrolidine], under setting [1], the affinity corresponds to a Ki of 250 nM. Still for that read-out and setting: the value for `Cc1nc(C)c(C(C)Oc2ccc(Cl)cc2OC2CNC2)s1` (centres unmarked) [Example 134, 5-[1-[2-(Azetidin-3-yloxy)-4-chloro-phenoxy]-ethyl]-2,4-dimethyl-thiazole] was 3830 nM. Under “rat 5-HT7, HEK-293 membranes”, `COc1ccc(C(=O)c2ccc(Br)cc2OC2CNC2)cc1` [Example 291, [2-(Azetidin-3-yloxy)-4-bromo-phenyl]-(4-methoxy-phenyl)-methanone] registered a Ki of 34 nM. Under setting [1], `CC(C)N1CC(Oc2ccc(Br)cc2OCc2cccc(Cl)c2)C1` [Example 24, 3-[4-Bromo-2-(3-chloro-benzyloxy)-phenoxy]-1-isopropyl-azetidine] registered an inhibition constant Ki of 190 nM. The compound `CC(Oc1cc(Br)ccc1OCc1cccc(Cl)c1)C1(O)CNC1` (centres unmarked) [Example 236, 3-[1-[5-Bromo-2-(3-chloro-benzyloxy)-phenoxy]-ethyl]-azetidin-3-ol] showed an inhibition constant Ki (rat 5-HT7, HEK-293 membranes) of 831 nM.

For the compound `O=C(c1ccc2c(c1)OCO2)c1ccc(Cl)cc1OC1CNC1` [Example 295, [2-(Azetidin-3-yloxy)-4-chloro-phenyl]-benzo[1,3]dioxol-5-yl-methanone], where the note is “rat 5-HT7, HEK-293 membranes”, the Ki turned out to be 226 nM. Under setting [1], `CCOC(=O)c1cc(COc2ccc(Cl)cc2OC2CNC2)oc1C(F)(F)F` [Example 76, 5-[2-(Azetidin-3-yloxy)-4-chloro-phenoxymethyl]-2-trifluoromethyl-furan-3-carboxylic acid ethyl ester] displayed a Ki of 5000 nM. On the same count and under the same terms, the value for `Clc1cccc(C2(COc3ccc(Cl)cc3OC3CNC3)CCC2)c1` [Example 189, 3-[5-Chloro-2-[1-(3-chloro-phenyl)-cyclobutylmethoxy]-phenoxy]-azetidine] was 138 nM.

With `Cc1cc(COc2ccc(Cl)cc2OC2CNC2)no1` [Example 30, 3-[2-(Azetidin-3-yloxy)-4-chloro-phenoxymethyl]-5-methyl-isoxazole], the affinity under setting [1] corresponds to a Ki of 105 nM. Regarding `OC1(COc2cc(Br)ccc2OCc2cccc(Cl)c2)CNC1` [Example 235, 3-[5-Bromo-2-(3-chloro-benzyloxy)-phenoxymethyl]-azetidin-3-ol], the inhibitory constant (Ki) (rat 5-HT7, HEK-293 membranes) was determined as 665 nM. `Fc1ccc(Oc2ccc(Br)cc2OC2CNC2)cc1` [Example 249, 3-[5-Bromo-2-(4-fluoro-phenoxy)-phenoxy]-azetidine] registered a Ki (rat 5-HT7, HEK-293 membranes) of 20 nM. `CCC(Oc1ccc(Cl)cc1OC1CCNCC1)c1cccc(C(F)(F)F)c1` (racemic) [Example 141, (±)-4-[5-Chloro-2-[1-(3-trifluoromethyl-phenyl)-propoxy]-phenoxy]-piperidine] gave a Ki under setting [1] of 450 nM. As for `COc1cccc(Oc2ccc(Br)cc2OC2CNC2)c1` [Example 248, 3-[5-Bromo-2-(3-methoxy-phenoxy)-phenoxy]-azetidine], affinity (rat 5-HT7, HEK-293 membranes) was put at a Ki of 43 nM.

Consider `Fc1cccc(COc2ccc(Br)cc2OC2CN(c3ccccc3)C2)c1` [Example 172, 3-[5-Bromo-2-(3-fluoro-benzyloxy)-phenoxy]-1-phenyl-azetidine], for which, under setting [1], the Ki came to 5000 nM.

Where the note is “rat 5-HT7, HEK-293 membranes”, `CC(C)N1CC(Oc2cc(Br)ccc2C(=O)c2ccc3c(c2)OCO3)C1` [Example 290, Benzo[1,3]dioxol-5-yl-[4-bromo-2-(1-isopropyl-azetidin-3-yloxy)-phenyl]-methanone] had a Ki of 143 nM. `FC(F)(F)c1cccc(COc2ccc(Cl)cc2OC2CCCNC2)c1` (racemic) [Example 71, (±)-3-[5-Chloro-2-(3-trifluoromethyl-benzyloxy)-phenoxy]-piperidine] displayed a Ki under setting [1] of 143 nM. Under setting [1], `Clc1cccc(COc2ccc(Cl)cc2O[C@@H]2CCNC2)c1` [Example 58, (R)-3-[5-Chloro-2-(3-chloro-benzyloxy)-phenoxy]-pyrrolidine] had a Ki of 120 nM.

`Clc1ccc(Oc2ccccc2)c(OC2CCNCC2)c1` [Example 265, 4-(5-Chloro-2-phenoxy-phenoxy)-piperidine] yielded a Ki (rat 5-HT7, HEK-293 membranes) of 130 nM.

With `CC1(Oc2cc(Br)ccc2OCc2cccc(C(F)(F)F)c2)CNC1` [Example 217], the affinity (rat 5-HT7, HEK-293 membranes) corresponds to a Ki of 34 nM. For the compound `CCC(Oc1ccc(Cl)cc1OC1CNC1)c1ccccc1` (centres unmarked) [Example 147, 3-[5-Chloro-2-(1-phenyl-propoxy)-phenoxy]-azetidine], the Ki under setting [1] came to 211 nM. Consider `Clc1cccc(COc2ccc(Br)cc2COC2CNC2)c1` [Example 237, 3-[5-Bromo-2-(3-chloro-benzyloxy)-benzyloxy]-azetidine], for which the inhibition constant (Ki) (rat 5-HT7, HEK-293 membranes) was found to be 120 nM. `CC(Oc1ccc(Cl)cc1OC1CNC1)c1cc(F)ccc1F` (racemic) [Example 130, (±)-3-[5-Chloro-2-[1-(2,5-difluoro-phenyl)-ethoxy]-phenoxy]-azetidine trifluoroacetate] came in with a Ki under setting [1] of 371 nM.

`COc1cccc(COc2ccc(Br)cc2OC2CCN(C)C2)c1` (racemic) [Example 96, (±)-3-[5-Bromo-2-(3-methoxy-benzyloxy)-phenoxy]-1-methyl-pyrrolidine] came in with a Ki under setting [1] of 13 nM. With `Cc1cc(COc2ccc(Cl)cc2OC2CNC2)c(C(F)(F)F)o1` [Example 78, 3-[5-Chloro-2-(5-methyl-2-trifluoromethyl-furan-3-ylmethoxy)-phenoxy]-azetidine], the Ki under setting [1] turned out to be 710 nM. As to `CC(C)N1CC(Oc2cc(Br)ccc2OCc2cccc(F)c2)C1` [Example 20, 3-[5-Bromo-2-(3-fluoro-benzyloxy)-phenoxy]-1-isopropyl-azetidine], the affinity under setting [1], expressed as Ki, was 8 nM. In turn, `CN1CCC(Oc2cc(Br)ccc2OCc2cccc(OS(C)(=O)=O)c2)C1` (racemic) [Example 99, (±)-Methanesulfonic acid 3-[4-bromo-2-(1-methyl-pyrrolidin-3-yloxy)-phenoxymethyl]-phenyl ester] had a Ki under setting [1] of 5 nM. With `N#Cc1ccc(COc2ccc(Cl)cc2OC2CNC2)cc1` [Example 44, 4-[2-(Azetidin-3-yloxy)-4-chloro-phenoxymethyl]-benzonitrile], the Ki under setting [1] stood at 87 nM.

Take `O=C(O)C(Oc1ccc(Cl)cc1OC1CNC1)c1ccccc1` (centres unmarked) [Example 149, [2-(Azetidin-3-yloxy)-4-chloro-phenoxy]-phenyl-acetic acid hydrochloride]: under setting [1], the Ki is over 10000 nM. Under setting [1], `FCC(Oc1ccc(Cl)cc1OC1CCNCC1)c1ccccc1` (racemic) [Example 144, (±)-4-[5-Chloro-2-(2-fluoro-1-phenyl-ethoxy)-phenoxy]-piperidine] had a Ki of 304 nM. Same read-out and setting: the value for `Fc1ccc(COc2ccc(Cl)cc2OC2CNC2)c(F)c1` [Example 57, 3-[5-Chloro-2-(2,4-difluoro-benzyloxy)-phenoxy]-azetidine] was 42 nM. Under “rat 5-HT7, HEK-293 membranes”, `CC(C)c1noc(COc2ccc(Cl)cc2OC2CNC2)n1` [Example 242, 5-[2-(Azetidin-3-yloxy)-4-chloro-phenoxymethyl]-3-isopropyl-[1,2,4]oxadiazole hydrochloride] came in with a Ki of 273 nM. On the same count and under the same terms, the value for `Brc1ccc(Oc2ccc3ccccc3c2)c(OC2CNC2)c1` [Example 254, 3-[5-Bromo-2-(naphthalen-2-yloxy)-phenoxy]-azetidine] was 19 nM. In the case of `CC(Oc1ccc(Cl)cc1OC1CNC1)c1nccs1` (centres unmarked) [Example 133, 2-[1-[2-(Azetidin-3-yloxy)-4-chloro-phenoxy]-ethyl]-thiazole], the affinity under setting [1], expressed as Ki, was 591 nM. On to `Clc1ccc(Oc2ccccc2)c(OC2CNC2)c1` [Example 256, 3-(5-Chloro-2-phenoxy-phenoxy)-azetidine], for which, for the setting “rat 5-HT7, HEK-293 membranes”, the affinity, expressed as Ki, was 160 nM.

`CC(Oc1ccc(Cl)cc1OC1CCNCC1)c1cccc(OC(F)(F)F)c1` (racemic) [Example 137, (±)-4-[5-Chloro-2-[1-(3-trifluoromethoxy-phenyl)-ethoxy]-phenoxy]-piperidine] registered a Ki under setting [1] of 472 nM. With `C[C@H](Oc1ccc(Cl)cc1OC1CN(C)C1)c1cccc(C(F)(F)F)c1` [Example 103, (S)-3-[5-Chloro-2-[1-(3-trifluoromethyl-phenyl)-ethoxy]-phenoxy]-1-methyl-azetidine], affinity under setting [1] was put at a Ki of 27 nM.

Take `CC(Oc1ccc(Cl)cc1OC1CN(C2CCC2)C1)c1cccc(C(F)(F)F)c1` (racemic) [Example 107, (±)-3-[5-Chloro-2-[1-(3-trifluoromethyl-phenyl)-ethoxy]-phenoxy]-1-cyclobutyl-azetidine]: the inhibition constant (Ki) under setting [1] worked out at 90 nM. The same measure, in the same setting: for `Clc1ccc(OCC2CCOC2)c(OC2CNC2)c1` (centres unmarked) [Example 163, 3-[5-Chloro-2-(tetrahydro-furan-3-ylmethoxy)-phenoxy]-azetidine] the value was 766 nM. `CCC1(Oc2cc(Br)ccc2OCc2cccc(Cl)c2)CNC1` [Example 213, 3-[5-Bromo-2-(3-chloro-benzyloxy)-phenoxy]-3-ethyl-azetidine] showed a Ki (rat 5-HT7, HEK-293 membranes) of 4590 nM. Same read-out and setting: the value for `CCc1noc(COc2ccc(Cl)cc2OC2CNC2)n1` [Example 243, 5-[2-(Azetidin-3-yloxy)-4-chloro-phenoxymethyl]-3-ethyl-[1,2,4]oxadiazole hydrochloride] was 461 nM.

`CC(C)(C)c1ccc2c(c1)CCC2Oc1ccc(Br)cc1OC1CNC1` (centres unmarked) [Example 162, 3-[5-Bromo-2-(5-tert-butyl-indan-1-yloxy)-phenoxy]-azetidine] yielded an inhibition constant Ki under setting [1] of 5000 nM.
